Test system: vascular smooth muscle cells
Assay: Uptake amount of chelate compound by vascular smooth muscle cells (mixed culture with macrophages)
Format: cell-based
Settings: liposome preparation PC: 50 nmol+PS: 50 nmol+Compound 1: 75 nmol; mixed culture system of vascular smooth muscle cells and macrophage; 37° C., 5% CO2, 24 hours
Protocol: Uptake Amount of Chelate Compound by Vascular Smooth Muscle Cells
Dipalmitoyl-PC (Funakoshi, No. 1201-41-0225) and dipalmitoyl-PS (Funakoshi, No. 1201-42-0237) at the ratio shown below were dissolved in chloroform together with a hydrophobic chelate compound (Compound 1 specifically shown above as a preferred compound) in an eggplant-shaped flask according to the method described in J. Med. Chem., 25 (12), 1500 (1982) to form a uniform solution. Then, the solvent was evaporated under reduced pressure to form a thin membrane on the bottom of the flask bottom. This thin membrane was dried in vacuum, then added with an appropriate amount of 0.9% physiological saline (Hikari Pharmaceutical, No. 512) and subjected to ultrasonication (No. 3542 probe type oscillator, Branson, 0.1 mW) for 5 minutes to obtain a uniform liposome dispersion. The diameters of the liposomes in the resulting dispersion were measured by using WBC analyzer (A-1042, Nihon Kohden). […] The liposome preparation mentioned below, which was produced by the above method, was added to a mixed culture system of vascular smooth muscle cells and macrophage described in International Publication WO 01/82977. The cells were cultured at 37° C. under 5% CO2 for 24 hours, and the amount of the chelate compound taken up into the vascular smooth muscle cells was quantified.
PC: 50 nmol+PS: 50 nmol+Compound 1: 75 nmol […]

CC(C)CCCC(C)C1CCC2C3C=CC4CC(OC(=O)COC(=O)CN(CCN(CC(=O)O)CC(=O)O)CCN(CC(=O)O)CC(=O)O)CCC4(C)C3CCC12C (stereo not shown) [Compound 1]
Amount taken up by vascular smooth muscle cells: 20 nmol/mg protein
